Here are results for 9 molecules from EP3932936A1, “POLYPEPTIDE HAVING ANTIBACTERIAL ACTIVITY, COMPOSITION FOR PREVENTING OR TREATING SEPSIS COMPRISING SAME, AND ANTIBACTERIAL COMPOSITION” (Dandi Bioscience Inc, priority 2019, dated 2022).

No end group written: not given here.

Data set [1] in a line: LPS binding affinity (Kd) by Isothermal Titration Calorimeter (ITC). The settings on record: stated in words relative to FP1 (wild type, WT). Also noted: species or system E. coli K1. The source says: FP1 (ADK 44-54) is denoted by wild type (WT), and peptides in which a point mutation occurred at various sites in WT were manufactured (FP3, FP5, FP6, and FP9). To increase the interaction with LPS in a residue sequence of FP3, peptides were designed based on FP3- and LPS-binding models (FP12-NH2 and FP13-NH2), and peptides were designed by additionally introducing a non-natural amino acid and an amino acid isomer (allomeric D-type amino acid) (allD FP12-NH2, allD FP13-NH2, allD FP-13-9a, allD FP-13-9w, allD FP-13-9k, and allD FP13-NH2 (AcOH)). In addition, an N-terminus PEGylated peptide (PEG-alld FP13-NH2 (AcOH)) was additionally designed, synthesized, and provided by ANYGEN, Co. Ltd. The binding affinity between each of the provided peptides and lipopolysaccharide (LPS) was confirmed through measuring the binding affinity (Kd) using Isothermal Titration Calorimeter (ITC).
Specifically, a method of analyzing binding affinity (Kd) between a peptide and LPS is as follows.
Measurement was carried out using a Malvern MicroCal PEAQ-ITC cell instrument, and the following pretreatment was carried out to confirm interaction with LPS. The amount and morphology of a sample cell are 300 µL and coin-shaped, fixed-in-place, respectively; a syringe rotation rate was 1,200 rpm; and a temperature was 30 °C, 35 °C or 25 °C.
Before the experiment, LPS and the peptide were previously diluted with PBS, thereby preparing 2 mM LPS and 0.2 mM peptide. 300 µL of the peptide was added into cells in the ITC instrument, which had been washed, and 40 µL of LPS was put into a syringe. After measurement conditions for ITC (temperature, number of injections) were set, the syringe was inserted into the cell, and ITC measurement was started. When the measurement was completed, analysis is performed, and the Kd values of LPS and the peptide were calculated.

Data set [2] is described as follows: In vivo toxicity (survival rate for 72 hours). Also noted: species or system ICR mice. The settings on record: ratio of a drug dose exhibiting toxicity to a drug dose for exhibiting a desired response. As for the experimental part:
To confirm the therapeutic and pharmaceutical effects of an acetate salt substitution of allD FP13-NH2, a septic animal model induced by intraperitoneally administering each of the Escherichia coli (standard strain and ESBL) strains or a normal mouse was treated with the peptide allD FP13-NH2 (AcOH). The antibiotic effect, the toxicity, and the inhibitory activity of […] cytokine IL-6 of the salt substitution with those of the same peptide at the end of trifluoroacetic acid (TFA) were compared.
An experimental method is as follows: Six-week-old female ICR mice (SPF mice, Samtako) with an average body weight of 25 g were used as experimental animals. The experimental animals were provided with sterile feed and water and bred with less than 10 mice per cage, and a day/night cycle was 12 hours.
To evaluate in vivo toxicity, the mice were divided into groups (n=5 or 6 per group) per experiment, and intraperitoneally treated six times with allD FP13-NH2 (TFA) and allD FP13-NH2 (AcOH) mixed with […]'S DEX solution (vehicle) at 0, 1, 2, 3, 4, or 5 hours, followed by observing a survival rate at intervals of 12 hours for 72 hours.

Data set [3] in a line: Calcein dye leakage from liposome mimicking gram-negative bacterial cell membrane. The settings on record: PC/PG (7:3, w/w) liposome; even at a low concentration. As to the method: (§1) To study an action mechanism for FP12-NH2, FP13-NH2, allD FP12-NH2, and allD FP13-NH2 peptides, the disruption ability of the peptides against liposomes mimicking a bacterial cell membrane and a red blood cell membrane was measured.
EYPG is an abbreviation for egg yolk L-α-phosphatidyl-DL-glycerol, and EYPC is an abbreviation for egg yolk 1,2-diacyl-sn-glycero-3-phosphocholine. CH is an abbreviation for cholesterol. After dissolving the phospholipids composed according to the content of each component in chloroform, the chloroform was removed using a rotary evaporator, and lyophilization was performed overnight. Afterward, the dried lipid film was dissolved in a Tris-buffer solution, and calcein […]. After repeated freezing and thawing, the calcein-encapsulated liposome was manufactured using an extruder. Subsequently, after an excitation wavelength of a spectrofluorimeter (Shimadzu RF 5301 PC spectrofluorimeter, Japan) was set to 490 nm, and an emission wavelength was set to 520 nm, the peptide was administered to the liposome to measure relative dye leakage, provided that a 100% dye leakage was expressed as fluorescence intensity when 0.01% Triton-Xioo was added. […]

The nature of data set [4]: Calcein dye leakage from liposome mimicking red blood cell membrane. The settings on record: for dye leakage: PC/CH (1:1, w/w) liposome mimicking a red blood cell membrane in a mammal, FIG. 3. As to the method: as §1
EYPG is an abbreviation for egg yolk L-α-phosphatidyl-DL-glycerol, and EYPC is an abbreviation for egg yolk 1,2-diacyl-sn-glycero-3-phosphocholine. CH is an abbreviation for cholesterol. After dissolving the phospholipids composed according to the content of each component in chloroform, the chloroform was removed using a rotary evaporator, and lyophilization was performed overnight. Afterward, the dried lipid film was dissolved in a Tris-buffer solution, and calcein […]. After repeated freezing and thawing, the calcein-encapsulated liposome was manufactured using an extruder. Subsequently, after an excitation wavelength of a spectrofluorimeter (Shimadzu RF 5301 PC spectrofluorimeter, Japan) was set to 490 nm, and an emission wavelength was set to 520 nm, the peptide was administered to the liposome to measure relative dye leakage, provided that a 100% dye leakage was expressed as fluorescence intensity when 0.01% Triton-Xioo was added.
The upper graphs of FIG. 3 show the % dye leakage for an EYPC/EYPG (7:3, w/w) liposome mimicking bacterial cells, encapsulating a fluorescent dye, calcein, by a peptide according to a peptide concentration. […] The lower graphs of FIG. […]

Data set [5] has as its system red blood cells. Description: Red blood cell hemolytic activity. Conditions: even at a low concentration; control peptide. The class given is cell-based, human. As for the experimental part:
The following experiment was carried out to determine the toxicity of a peptide through measurement of the red blood cell hemolytic activity in a human.
The red blood cells in a human were diluted with PBS for washing, and centrifuged for 10 minutes, the washing process was repeated three times. The 8.0% red blood cell solution diluted with PBS was loaded into a 96-well microtiter plate by 100 µL and 100 µL of a peptide solution was mixed, the mixture was incubated at 37 °C for 1 hour, and then the 96-well microtiter plate was centrifuged for 5 minutes. A 100 µL of supernatant was taken and transferred to another 96-well microtiter plate, and then absorbance was measured at 405 nm. Here, a value obtained when treated with 0.1% Triton X-100 was calculated as 100% hemolysis, and the hemolytic activity of the peptide was calculated as % hemolysis by Equation 1 below. Cell disruption rate(%Hemolysis) = (A−C)/(B−C) × 100 [formula]
Here, A is the absorbance at 405 nm in a peptide solution, B is the absorbance at 405 nm in a 0.1% Triton X-100, and C is the absorbance at 405 nm in a PBS solution.

The subject of data set [6] is S. aureus. Conditions: after treatment with proteolytic enzyme.

For KLRVKLRRKLR [allD FP-13-9k], the LPS binding affinity entry in data set [1] was “strong LPS binding affinity, which is equal to or higher than that of FP1”.
For the molecule `CC(C)C[C@@H](NC(=O)[C@H](N)CCCCN)C(=O)N[C@H](CCCNC(=N)N)C(=O)N[C@@H](C(=O)N[C@H](CCCCN)C(=O)N[C@H](CC(C)C)C(=O)N[C@H](CCCNC(=N)N)C(=O)N[C@H](CCCNC(=N)N)C(=O)N[C@H](Cc1ccc(O)cc1)C(=O)N[C@H](CC(C)C)C(=O)N[C@H](CCCNC(=N)N)C(N)=O)C(C)C` [allD FP13-NH2 (AcOH)], the “therapeutic index = LD50/ED50” value in data set [2] is given as “greater than 80”.
Turning to melittin, the calcein leakage entry in data set [3] is on record as “responsible for calcein leakage”; in data set [4] (PC/CH (10:1, w/w) liposome mimicking a human red blood cell, 0.25 µM), roughly 100%. In data set [5], this molecule yielded a hemolytic activity of 100%.
Consider `CC(C)C[C@@H](NC(=O)[C@H](N)CCCNC(=N)N)C(=O)N[C@H](CCCNC(=N)N)C(=O)N[C@@H](C(=O)N[C@H](CCCCN)C(=O)N[C@H](CC(C)C)C(=O)N[C@H](CCCNC(=N)N)C(=O)N[C@H](CCCNC(=N)N)C(=O)N[C@H](Cc1ccc(O)cc1)C(=O)N[C@H](CC(C)C)C(=O)N[C@H](CCCNC(=N)N)C(N)=O)C(C)C` [allD FP12-NH2], for which the dye leakage result in data set [4] was “almost no dye leakage”. Besides, in data set [6], the “stability (proteolytic enzyme resistance)” value is on record as “very high stability”.
KLRVKLRRWLR [allD FP-13-9w]: the LPS binding affinity entry in data set [1] is “strong LPS binding affinity, which is equal to or higher than that of FP1”.
Same read-out and setting: then KLRVKLRRALR [allD FP-13-9a], with “strong LPS binding affinity, which is equal to or higher than that of FP1”.
For `CC(C)C[C@@H](NC(=O)[C@H](N)CCCCN)C(=O)N[C@H](CCCNC(=N)N)C(=O)N[C@@H](C(=O)N[C@H](CCCCN)C(=O)N[C@H](CC(C)C)C(=O)N[C@H](CCCNC(=N)N)C(=O)N[C@H](CCCNC(=N)N)C(=O)N[C@H](Cc1ccc(O)cc1)C(=O)N[C@H](CC(C)C)C(=O)N[C@H](CCCNC(=N)N)C(N)=O)C(C)C` [allD FP13-NH2], the dye leakage entry in data set [4] is listed as “almost no dye leakage”. Besides, the “stability (proteolytic enzyme resistance)” value in data set [6] was “very high stability”.
In the case of `CC(C)C[C@H](NC(=O)[C@H](Cc1ccc(O)cc1)NC(=O)[C@H](CCCNC(=N)N)NC(=O)[C@H](CCCNC(=N)N)NC(=O)[C@H](CC(C)C)NC(=O)[C@H](CCCCN)NC(=O)[C@@H](NC(=O)[C@H](CCCNC(=N)N)NC(=O)[C@H](CC(C)C)NC(=O)[C@@H](N)CCCNC(=N)N)C(C)C)C(=O)N[C@@H](CCCNC(=N)N)C(N)=O` [FP12-NH2], the dye leakage entry in data set [4] is listed as “almost no dye leakage”.
Take `CC(C)C[C@H](NC(=O)[C@H](Cc1ccc(O)cc1)NC(=O)[C@H](CCCNC(=N)N)NC(=O)[C@H](CCCNC(=N)N)NC(=O)[C@H](CC(C)C)NC(=O)[C@H](CCCCN)NC(=O)[C@@H](NC(=O)[C@H](CCCNC(=N)N)NC(=O)[C@H](CC(C)C)NC(=O)[C@@H](N)CCCCN)C(C)C)C(=O)N[C@@H](CCCNC(=N)N)C(N)=O` [FP13-NH2]: in data set [4], the dye leakage entry was “almost no dye leakage”.
